Data: patent US20060247261A1 (priority 2002, published 2006)
Structures can show the parent of a compound that is named as a salt. Where two headings read alike, the source gives them in different places.

Molecular target: T1, human cannabinoid CB2 receptor (Homo sapiens, UniProt P34972)
T1 construct: expressed in transfected cells; host or cells: Saccharomyces cerevisiae strain MMY23 (expresses a chimeric Gpa1/human Galpha-i3 G-protein alpha subunit)
Assay: Cannabinoid CB2 receptor agonist activity, yeast reporter assay
Assay type: cell-based
Conditions: for activity in the CB2 assay (in words): CB2 assay described herein; for Emax: read-out: efficacy (Emax) at the cloned human cannabinoid CB2 receptor
Source text: Yeast (Saccharomyces cerevisiae) cells expressing the human cannabinoid CB2 receptor were generated by integration of an expression cassette into the ura3 chromosomal locus of yeast strain MMY23. This cassette consisted of DNA sequence encoding the human CB2 receptor flanked by the yeast GPD promoter to the 5′ end of CB2 and a yeast transcriptional terminator sequence to the 3′ end of CB2. MMY23 expresses a yeast/mammalian chimeric G-protein alpha subunit in which the C-terminal 5 amino acids of Gpa1 are replaced with the C-terminal 5 amino acids of human Gαi3 (as described in Brown et al. (2000), Yeast 16:11-22).
Agonists were prepared as 10 mM stocks in DMSO. […] Agonist solutions in DMSO (1% final assay volume) were transferred into black, clear bottom, microtitre plates from NUNC (96- or 384-well). […] Fluorescence was plotted against compound concentration and iteratively curve fitted using a four parameter fit to generate a concentration effect value.

[1] = yeast (Saccharomyces cerevisiae) cells expressing human CB2, read-out: EC50 at the cloned human cannabinoid CB2 receptor

T1 sequence (P34972 whole entry): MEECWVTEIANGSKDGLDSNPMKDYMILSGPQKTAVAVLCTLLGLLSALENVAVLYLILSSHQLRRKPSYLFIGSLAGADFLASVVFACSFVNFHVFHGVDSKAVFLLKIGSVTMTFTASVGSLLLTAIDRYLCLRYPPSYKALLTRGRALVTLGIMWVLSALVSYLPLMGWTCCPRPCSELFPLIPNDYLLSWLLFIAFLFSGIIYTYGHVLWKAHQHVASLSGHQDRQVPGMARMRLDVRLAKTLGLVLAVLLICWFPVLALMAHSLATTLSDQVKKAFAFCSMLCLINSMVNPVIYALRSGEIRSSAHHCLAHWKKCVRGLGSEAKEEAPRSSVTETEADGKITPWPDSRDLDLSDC

**Q.** Which “activity in the CB2 assay (in words)” value does the source give for `O=C(NCc1ccccc1Br)c1cnc(Nc2cccc(Cl)c2)nc1C(F)(F)F` [2-(3-Chloro-phenylamino)-4-trifluoromethyl-pyrimidine-5-carboxylic acid 2-bromo-benzylamide] here?
**A.** inactive

**Q.** For `COc1ccccc1CNC(=O)c1cnc(Nc2cccc(Cl)c2)nc1C(F)(F)F` [2-(3-Chloro-phenylamino)-4-trifluoromethyl-pyrimidine-5-carboxylic acid 2-methoxy-benzylamide], which “activity in the CB2 assay (in words)” value is on record?
**A.** inactive

**Q.** For `CN(Cc1ccccc1)C(=O)c1cnc(Nc2ccc(C(C)(C)C)cc2)nc1C(F)(F)F` [2-(4-tert-butyl-phenylamino)-4-trifluoromethyl-pyrimidine-5-carboxylic acid benzyl-methyl-amide], which “activity in the CB2 assay (in words)” value is on record?
**A.** inactive

**Q.** With `CC(C)(C)c1ccc(Nc2ncc(C(=O)NCc3ccccc3)c(C(F)(F)F)n2)cc1` [2-(4-tert-butyl-phenylamino)-4-trifluoromethyl-pyrimidine-5-carboxylic acid benzylamide] as the molecule, how does the “activity in the CB2 assay (in words)” value read?
**A.** inactive

**Q.** Which results are given for `O=C(NCc1ccccc1)c1cnc(Nc2cccc(Cl)c2)nc1C(F)(F)F` [Example 1, 2-(3-Chlorophenylamino)-4-trifluoromethylpyrimidine-5-carboxylic acid benzyl-amide]?
**A.** EC50: 20 to 1000 nM; Emax: > 50%

**Q.** For `O=C(NCc1ccncc1)c1cnc(Nc2cccc(Cl)c2)nc1C(F)(F)F` [Example 2, 2-(3-Chlorophenylamino)-4-trifluoromethylpyrimidine-5-carboxylic acid (pyrdin-4-ylmethyl)amide], which EC50 is on record?
**A.** 20 to 1000 nM

**Q.** And the Emax?
**A.** > 50%

**Q.** With `CN(Cc1ccccc1)C(=O)c1cnc(Nc2cccc(Cl)c2)nc1C(F)(F)F` [Example 3, 2-(3-Chlorophenylamino)-4-trifluoromethylpyrimidine-5-carboxylic acid N-benzyl-N-methylamide] as the molecule, how does the EC50 read?
**A.** 20 to 1000 nM

**Q.** And the Emax?
**A.** > 50%

**Q.** What does the source list for `COc1ccc(CNC(=O)c2cnc(Nc3cccc(Cl)c3)nc2C(F)(F)F)cc1` [Example 4, 2-(3-Chlorophenylamino)-4-trifluoromethylpyrimidine-5-carboxylic acid 4-methoxybenzyl-amide]?
**A.** EC50: 20 to 1000 nM; Emax: > 50%

**Q.** `O=C(NCc1ccc(F)cc1)c1cnc(Nc2cccc(Cl)c2)nc1C(F)(F)F` [Example 5, 2-(3-Chlorophenylamino)-4-trifluoromethylpyrimidine-5-carboxylic acid 4 fluorobenzyl-amide] was tested. Which EC50 [1] did it give?
**A.** 20 to 1000 nM

**Q.** For `N#Cc1ccc(CNC(=O)c2cnc(Nc3cccc(Cl)c3)nc2C(F)(F)F)cc1` [Example 6, 2-(3-Chlorophenylamino)-4-trifluoromethylpyrimidine-5-carboxylic acid 4 cyanobenzyl-amide], which EC50 is on record?
**A.** 20 to 1000 nM

**Q.** And the Emax?
**A.** > 50%

**Q.** Which results are given for `CN(Cc1ccccc1)C(=O)c1cnc(Nc2cccc(Cl)c2Cl)nc1C(F)(F)F` [Example 7, 2-(2,3-Dichlorophenylamino)-4-trifluoromethylpyrimidine-5-carboxylic acid N-benzyl-N-methylamide]?
**A.** EC50: 20 to 1000 nM; Emax: > 50%

**Q.** Which results are given for `O=C(NCc1ccccc1)c1cnc(Nc2ccc(Cl)cc2Cl)nc1C(F)(F)F` [Example 8, 2-(2,4-Dichlorophenylamino)-4-trifluoromethyloyrimidine-5-carboxyllc acid benzyl-amide]?
**A.** EC50: 20 to 1000 nM; Emax: > 50%

**Q.** Which results are given for `O=C(NCc1ccccc1)c1cnc(Nc2ccc(Cl)c(Cl)c2)nc1C(F)(F)F` [Example 9, 2-(3,4-Dichlorophenylamino)-4-trifluoromethylpyrimidine-5-carboxylic acid benzyl-amide]?
**A.** EC50: 20 to 1000 nM; Emax: > 50%

**Q.** For `CN(Cc1ccccc1)C(=O)c1cnc(Nc2c(Cl)cccc2Cl)nc1C(F)(F)F` [Example 10, 2-(2,6-Dichlorophenylamino)-4-trifluoromethylpyrimidine-5-carboxylic acid N-benzyl-N-methylamide], which EC50 is on record?
**A.** 20 to 1000 nM

**Q.** What about the Emax of the same molecule?
**A.** > 50%

**Q.** For `O=C(NCc1ccccc1)c1cnc(Nc2cc(Cl)cc(Cl)c2)nc1C(F)(F)F` [Example 11, 2-(3,5-Dichlorophenylamino)trifluoromethylpyrimidine-5-carboxylic acid benzyl-amide], which EC50 is on record?
**A.** 20 to 1000 nM

**Q.** And the Emax?
**A.** > 50%

**Q.** Which EC50 does the source give for `O=C(NCc1ccccc1)c1cnc(Nc2cccc(F)c2)nc1C(F)(F)F` [Example 12, 2-(3-Fluorophenylamino)-4-trifluoromethylpyrimidine-5-carboxylic acid benzyl-amide] here?
**A.** 20 to 1000 nM

**Q.** What about the Emax of the same molecule?
**A.** > 50%

**Q.** How did the EC50 turn out when `O=C(NCc1ccccc1)c1cnc(Nc2cccc(Br)c2)nc1C(F)(F)F` [Example 13, 2-(3-Bromophenylamino)-4-trifluoromethylpyrimidine-5-carboxylic acid benzyl-amide] was run?
**A.** 20 to 1000 nM

**Q.** What about the Emax of the same molecule?
**A.** > 50%

**Q.** What does the source list for `CN(Cc1ccccc1)C(=O)c1cnc(Nc2cccc(Br)c2)nc1C(F)(F)F` [Example 14, 2-(3-Bromophenylamino)-4-trifluoromethylpyrimidine-5-carboxylic acid N-benzyl-N-methylamide]?
**A.** EC50: 20 to 1000 nM; Emax: > 50%

**Q.** With `COc1ccccc1Nc1ncc(C(=O)NCc2ccccc2)c(C(F)(F)F)n1` [Example 15, 2-(2-Methoxyphenylamino)-4-trifluoromethylpyrimidine-5-carboxylic acid benzyl-amide] as the molecule, how does the EC50 read?
**A.** 20 to 1000 nM

**Q.** And the Emax?
**A.** > 50%

**Q.** What does the source list for `O=C(NCc1ccncc1)c1cnc(Nc2cccc(Cl)c2Cl)nc1C(F)(F)F` [Example 16]?
**A.** EC50: 20 to 1000 nM; Emax: > 50%

**Q.** Which results are given for `O=C(NCc1ccncc1)c1cnc(Nc2ccc(Cl)cc2Cl)nc1C(F)(F)F` [Example 17, 2-(2,4-Dichlorophenylamino)-4-trifluoromethylpyrimidine-5-carboxylic acid (pyridin-4-ylmethyl)amide]?
**A.** EC50: 20 to 1000 nM; Emax: > 50%

**Q.** Which results are given for `O=C(NCc1ccncc1)c1cnc(Nc2ccc(Cl)c(Cl)c2)nc1C(F)(F)F` [Example 18]?
**A.** EC50: 20 to 1000 nM; Emax: > 50%

**Q.** For `O=C(NCc1ccncc1)c1cnc(Nc2cc(Cl)ccc2Cl)nc1C(F)(F)F` [Example 19, 2-(2,5-Dichlorophenylamino)trifluoromethylpyrimidine-5-carboxylic acid (pyridin-4-ylmethyl)amide], which EC50 is on record?
**A.** 20 to 1000 nM

**Q.** What about the Emax of the same molecule?
**A.** > 50%

**Q.** How did the EC50 turn out when `O=C(NCc1ccncc1)c1cnc(Nc2cccc(F)c2)nc1C(F)(F)F` [Example 20, 2-(3-Fluorophenylamino)-4-trifluoromethylpyrimidine-5-carboxylic acid (pyridin-4-ylmethyl)amide] was run?
**A.** 20 to 1000 nM

**Q.** What about the Emax of the same molecule?
**A.** > 50%

**Q.** Which EC50 does the source give for `O=C(NCc1ccncc1)c1cnc(Nc2cccc(Br)c2)nc1C(F)(F)F` [Example 21, 2-(3-Bromophenylamino)-4-trifluoromethylpyrimidine-5-carboxylic acid (pyridin-4-ylmethyl)amide] here?
**A.** 20 to 1000 nM

**Q.** What about the Emax of the same molecule?
**A.** > 50%

**Q.** `O=C(NCc1ccncc1)c1cnc(Nc2cc(Cl)cc(Cl)c2)nc1C(F)(F)F` [Example 22, 2-(3,5-Dichlorophenylamino)-4-trifluoromethylpyrimidine-5-carboxylic acid (pyridin-4-ylmethyl)amide] was tested. Which EC50 did it give?
**A.** 20 to 1000 nM

**Q.** What about the Emax of the same molecule?
**A.** > 50%

**Q.** Which results are given for `O=C(NCc1ccc(F)cc1)c1cnc(Nc2cccc(F)c2)nc1C(F)(F)F` [Example 23, 2-(3-Fluorophenylamino)-4-trifluoromethylpyrimidine-5-carboxylic acid 4-fluorobenzyl-amide]?
**A.** EC50: 20 to 1000 nM; Emax: > 50%

**Q.** For `O=C(NCc1ccc(F)cc1)c1cnc(Nc2cccc(Br)c2)nc1C(F)(F)F` [Example 24], which EC50 [1] is on record?
**A.** 20 to 1000 nM

**Q.** What does the source list for `O=C(NCc1ccc(F)cc1)c1cnc(Nc2cc(Cl)cc(Cl)c2)nc1C(F)(F)F` [Example 25, 2-(3,5-Dichlorophenylamino)trifluoromethylpyrimidine-5-carboxylic acid 4-fluorobenzyl-amide]?
**A.** EC50: 20 to 1000 nM; Emax: > 50%

**Q.** How did the EC50 turn out when `N#Cc1ccc(CNC(=O)c2cnc(Nc3cc(Cl)cc(Cl)c3)nc2C(F)(F)F)cc1` [Example 26, 2-(3,5-Dichlorophenylamino)-4-trifluoromethylpyrimidine-5-carboxylic acid 4-cyanobenzylamide] was run?
**A.** 20 to 1000 nM

**Q.** What about the Emax of the same molecule?
**A.** > 50%

**Q.** For `N#Cc1ccc(Nc2ncc(C(=O)NCc3ccccc3)c(C(F)(F)F)n2)cc1` [Example 27, 2-(4-Cyano-phenylamino)-4-trifluoromethyl-pyrimidine-5-carboxylic acid benzylamide], which EC50 is on record?
**A.** 20 to 1000 nM

**Q.** And the Emax?
**A.** > 50%

**Q.** Which EC50 does the source give for `Cc1cc(CNC(=O)c2cnc(Nc3cccc(Cl)c3)nc2C(F)(F)F)ccn1` [Example 28, 2-(3-Chloro-phenylamino)-4-trifluoromethyl-pyrimidine-5-carboxylic acid (2-methyl-pyridin-4-ylmethyl)-amide hydrochloride] here?
**A.** 20 to 1000 nM

**Q.** What about the Emax of the same molecule?
**A.** > 50%

**Q.** How did the EC50 turn out when `O=C(NCc1ccnc(F)c1)c1cnc(Nc2cccc(Cl)c2)nc1C(F)(F)F` [Example 29, 2-(3-Chloro-phenylamino)-4-trifluoromethyl-pyrimidine-5-carboxylic acid (2-fluoro-pyridin-4-ylmethyl)-amide] was run?
**A.** 20 to 1000 nM

**Q.** What about the Emax of the same molecule?
**A.** > 50%

**Q.** With `O=C(NCc1ccccc1)c1cnc(Nc2ccccc2Cl)nc1C(F)(F)F` [Example 43, 2-(2-Chloro-phenylamino)-4-trifluoromethyl-pyrimidine-5-carboxylic acid N-benzylamide] as the molecule, how does the EC50 read?
**A.** > 1000 nM

**Q.** And the Emax?
**A.** < 50%

**Q.** `O=C(NCc1ccccc1)c1cnc(Nc2ccc(Cl)cc2)nc1C(F)(F)F` [Example 44, 2-(4-Chloro-phenylamino)4-trifluoromethyl-pyrimidine-5-carboxylic acid N-benzylamide] was tested. Which EC50 did it give?
**A.** > 1000 nM

**Q.** And the Emax?
**A.** < 50%
